Measured values taken from the NIST ThermoML archive (doi:10.1016/j.jct.2011.09.008).

Experiment: xn = mol fraction of the nth substance listed
Settings: 101 kPa, Liquid, Sing-around technique in a fixed-path interferometer

CCCOCC(C)O (stereo not given) [1-propoxy-2-propanol] + O
speed of sound [m/s]
Settings | 283.15 K | 288.15 K | 293.15 K
x1 = 0.00326 | 1470.7 | 1487.1 | 1501.5
x1 = 0.00845 | 1503.1 | 1516.8 | 1528.7
x1 = 0.01369 | 1533.3 | 1543.7 | 1552.5
x1 = 0.01942 | 1563.4 | 1570.1 | 1575.7
x1 = 0.02453 | 1582.6 | 1585.6 | 1586.9
x1 = 0.02855 | 1594.9 | 1594 | 1591.7
x1 = 0.03532 | 1598 | 1590.9 | 1583.2
x1 = 0.04675 | 1577.1 | 1566.9 | 1557
x1 = 0.06359 | 1545.3 | 1535.2 | 1524.6
x1 = 0.08224 | 1520.5 | 1509.6 | 1498.1
x1 = 0.09758 | 1504.9 | 1493.2 | 1481
x1 = 0.1185 | 1487.8 | 1475.4 | 1462.3
x1 = 0.145 | 1470.9 | 1457.6 | 1444
x1 = 0.1945 | 1447.2 | 1433.1 | 1418.6
x1 = 0.2213 | 1437.3 | 1422.4 | –
x1 = 0.2686 | 1422.1 | 1406.9 | –
x1 = 0.3432 | 1402.5 | 1386.5 | –
x1 = 0.4424 | 1381.2 | 1364.5 | –
x1 = 0.5415 | 1363 | 1345.7 | –
x1 = 0.6444 | 1346.5 | 1328.6 | –
x1 = 0.7056 | 1337.3 | 1319.3 | –
x1 = 0.7569 | 1330.3 | 1312 | –
x1 = 0.7951 | 1325.2 | 1306.9 | –
x1 = 0.8374 | 1320.2 | 1301.4 | –
x1 = 0.88 | 1314.6 | 1296.2 | –
x1 = 0.9193 | 1310.3 | 1291.7 | –
x1 = 0.9597 | 1306 | 1287.3 | –
x1 = 1 | 1301.9 | 1283.2 | –
